Measurements as given in the supplement of paper PMC7017272.
± gives the standard deviation of the averaged measurements.

What was measured:
Settings in all cases: treatment time: 3 days
UT-SCC-73 [1] = experiment: relative IC50 (midpoint of the fitted curve; maximal inhibition may be below 50%); higher = less potent
Summary of the method: (§1)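 Viability of HPV-negative HNSCC cell lines was measured by CellTiter-Glo 2.0 luminescence. Cells were seeded at 500 cells/well in 384-well plates on plastic, on Matrigel- or Myogel-coated wells (500 µg/mL), or embedded in Matrigel or Myogel plus rat collagen I, then given compounds at five 10-fold concentrations for 3 days, with signals normalised to vehicle (0.1% DMSO) and cell-killing control wells. Fitting of percent-inhibition dose–response curves in the FIMM pipeline yielded IC50, maximal inhibition and drug sensitivity score.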

UT-SCC-40 [2] = experiment: as above
Summary of the method: as §1

UT-SCC-14 [3] = experiment: as above
Summary of the method: as §1

UT-SCC-24B [4] = experiment: as above
Summary of the method: as §1

UT-SCC-42B [5] = experiment: as above
Summary of the method: as §1

UT-SCC-106A [6] = experiment: as above
Summary of the method: as §1

UT-SCC-44 [7] = experiment: as above
Summary of the method: as §1

UT-SCC-73 [8] = experiment: maximal % inhibition of viability relative to DMSO; higher = stronger effect
Procedure: (§2)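 HNSCC cell lines (500 cells/well, 384-well) were cultured on plastic, on top of (2D) or embedded (3D) in Matrigel or human leiomyoma matrix Myogel (500 ug/mL; Myogel 3D mixed with rat collagen I). Cells were treated for 3 days with 5 ten-fold concentrations of each drug, and viability was read by CellTiter-Glo. Viability was normalised to DMSO and benzethonium chloride controls and fitted with the FIMM DSRT pipeline to give IC50 (nM), maximal % inhibition and DSS. Suffixes _1/_2/_3 are replicates. Only inhibition-mode (IC50) fits are kept.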

UT-SCC-40 [9] = experiment: as above
Procedure: as §2

UT-SCC-8 = experiment: as above
Procedure: as §2

UT-SCC-28 = experiment: as above
Procedure: as §2

UT-SCC-42A = experiment: as above
Procedure: as §2

UT-SCC-14 [10] = experiment: as above
Procedure: as §2

UT-SCC-24B [11] = experiment: as above
Procedure: as §2

UT-SCC-42B [12] = experiment: as above
Procedure: as §2

UT-SCC-106A [13] = experiment: as above
Procedure: as §2

UT-SCC-81 = experiment: as above
Procedure: as §2

UT-SCC-44 [14] = experiment: as above
Procedure: as §2

UT-SCC-24A = experiment: drug sensitivity score (DSS); higher = more sensitive
Procedure: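 HNSCC cell lines (500 cells/well, 384-well) were cultured on plastic, on top of (2D) or embedded (3D) in Matrigel or human leiomyoma matrix Myogel (500 ug/mL; Myogel 3D mixed with rat collagen I). Cells were treated for 3 days with 5 ten-fold concentrations of each drug, and viability was read by CellTiter-Glo. Suffixes _1/_2/_3 on drug names are replicates.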

[15] = culture condition: embedded in Matrigel
[16] = culture condition: embedded in Myogel + collagen I
[17] = culture condition: on top of Matrigel
[18] = culture condition: on top of Myogel
[19] = culture condition: plastic 2D (no matrix)

- relative IC50 (UT-SCC-73 [1]; [15]): 2.4 nM
- relative IC50 (UT-SCC-73 [1]; [16]): 3.82 nM
- relative IC50 (UT-SCC-73 [1]; [17]): 3.23 nM
- relative IC50 (UT-SCC-73 [1]; [18]): 9.54 nM
- relative IC50 (UT-SCC-73 [1]; [19]): 5.35 nM
- relative IC50 (UT-SCC-40 [2]; [15]): 2.68 nM
- relative IC50 (UT-SCC-40 [2]; [16]): 6.76 nM
- relative IC50 (UT-SCC-40 [2]; [17]): 4.29 nM
- relative IC50 (UT-SCC-40 [2]; [18]): 13.8 nM
- relative IC50 (UT-SCC-40 [2]; [19]): 10.6 nM
- relative IC50 (UT-SCC-14 [3]; [16]): 9.53 nM
- relative IC50 (UT-SCC-14 [3]; [17]): 14.3 nM
- relative IC50 (UT-SCC-14 [3]; [18]): 16.1 nM
- relative IC50 (UT-SCC-24B [4]; [16]): 62.7 nM
- relative IC50 (UT-SCC-24B [4]; [17]): 39.5 nM
- relative IC50 (UT-SCC-42B [5]; [15]): 1.54 nM
- relative IC50 (UT-SCC-42B [5]; [18]): 80.8 nM
- relative IC50 (UT-SCC-106A [6]; [15]): 2.16 nM
- relative IC50 (UT-SCC-106A [6]; [17]): 2.3 nM
- relative IC50 (UT-SCC-106A [6]; [19]): 2.3 nM
- relative IC50 (UT-SCC-44 [7]; [15]): 3.37 nM
- relative IC50 (UT-SCC-44 [7]; [16]): 108 nM
- relative IC50 (UT-SCC-44 [7]; [19]): 7.56 nM
Compound: Cn1c(=O)c(F)c(Nc2ccc(I)cc2F)c2c(=O)n(C[C@@H](O)CO)cnc21 [TAK-733]
- maximal % inhibition of viability (UT-SCC-73 [8]; [15]): 79.1 ± 1.5%
- maximal % inhibition of viability (UT-SCC-73 [8]; [16]): 48.3 ± 16%
- maximal % inhibition of viability (UT-SCC-73 [8]; [17]): 74.1 ± 1%
- maximal % inhibition of viability (UT-SCC-73 [8]; [18]): 59.9 ± 4.8%
- maximal % inhibition of viability (UT-SCC-73 [8]; [19]): 68.4 ± 3.9%
- maximal % inhibition of viability (UT-SCC-40 [9]; [15]): 78.2 ± 1.2%
- maximal % inhibition of viability (UT-SCC-40 [9]; [16]): 64 ± 2.1%
- maximal % inhibition of viability (UT-SCC-40 [9]; [17]): 72.9 ± 2.1%
- maximal % inhibition of viability (UT-SCC-40 [9]; [18]): 51 ± 0.89%
- maximal % inhibition of viability (UT-SCC-40 [9]; [19]): 53.7 ± 0.74%
- maximal % inhibition of viability (UT-SCC-8; [15]): 74.4 ± 12%
- maximal % inhibition of viability (UT-SCC-8; [16]): 35.5 ± 26%
- maximal % inhibition of viability (UT-SCC-8; [17]): 65.3 ± 12%
- maximal % inhibition of viability (UT-SCC-8; [18]): 46.8 ± 21%
- maximal % inhibition of viability (UT-SCC-8; [19]): 56.1 ± 17%
- maximal % inhibition of viability (UT-SCC-28; [15]): 36.6 ± 7.2%
- maximal % inhibition of viability (UT-SCC-28; [16]): 22.7 ± 21%
- maximal % inhibition of viability (UT-SCC-28; [17]): 41.5 ± 1.7%
- maximal % inhibition of viability (UT-SCC-28; [19]): 25.6 ± 1%
- maximal % inhibition of viability (UT-SCC-42A; [15]): 57.9 ± 2.6%
- maximal % inhibition of viability (UT-SCC-42A; [16]): 41.5 ± 27%
- maximal % inhibition of viability (UT-SCC-42A; [17]): 59.9 ± 5.2%
- maximal % inhibition of viability (UT-SCC-42A; [18]): 42.1 ± 5.3%
- maximal % inhibition of viability (UT-SCC-42A; [19]): 52.7 ± 3.6%
- maximal % inhibition of viability (UT-SCC-14 [10]; [15]): 42.3 ± 17%
- maximal % inhibition of viability (UT-SCC-14 [10]; [16]): 31.8 ± 2.2%
- maximal % inhibition of viability (UT-SCC-14 [10]; [17]): 33.3 ± 3.4%
- maximal % inhibition of viability (UT-SCC-14 [10]; [18]): 28.6 ± 2.2%
- maximal % inhibition of viability (UT-SCC-14 [10]; [19]): 20.4 ± 13%
- maximal % inhibition of viability (UT-SCC-24B [11]; [15]): 67.3 ± 1.5%
- maximal % inhibition of viability (UT-SCC-24B [11]; [16]): 67.2 ± 1.2%
- maximal % inhibition of viability (UT-SCC-24B [11]; [17]): 64.3 ± 1.3%
- maximal % inhibition of viability (UT-SCC-24B [11]; [18]): 55.5 ± 2.2%
- maximal % inhibition of viability (UT-SCC-24B [11]; [19]): 79.9 ± 1.1%
- maximal % inhibition of viability (UT-SCC-42B [12]; [15]): 71.3 ± 7.9%
- maximal % inhibition of viability (UT-SCC-42B [12]; [17]): 54 ± 1.3%
- maximal % inhibition of viability (UT-SCC-42B [12]; [18]): 30.2 ± 3.9%
- maximal % inhibition of viability (UT-SCC-42B [12]; [19]): 38.4 ± 5.8%
- maximal % inhibition of viability (UT-SCC-106A [13]; [15]): 52.3 ± 2.4%
- maximal % inhibition of viability (UT-SCC-106A [13]; [16]): 19 ± 5.5%
- maximal % inhibition of viability (UT-SCC-106A [13]; [17]): 61.9 ± 4.9%
- maximal % inhibition of viability (UT-SCC-106A [13]; [18]): 17.8 ± 1.7%
- maximal % inhibition of viability (UT-SCC-106A [13]; [19]): 63.4 ± 1.2%
- maximal % inhibition of viability (UT-SCC-81; [15]): 87.1 ± 4%
- maximal % inhibition of viability (UT-SCC-81; [16]): 25 ± 12%
- maximal % inhibition of viability (UT-SCC-81; [17]): 71.5 ± 6%
- maximal % inhibition of viability (UT-SCC-81; [18]): 24.3 ± 5.5%
- maximal % inhibition of viability (UT-SCC-81; [19]): 36.4 ± 2.3%
- maximal % inhibition of viability (UT-SCC-44 [14]; [15]): 75.4 ± 0.62%
- maximal % inhibition of viability (UT-SCC-44 [14]; [16]): 37.1 ± 8.1%
- maximal % inhibition of viability (UT-SCC-44 [14]; [17]): 64.6 ± 10%
- maximal % inhibition of viability (UT-SCC-44 [14]; [18]): 38.3 ± 4.8%
- maximal % inhibition of viability (UT-SCC-44 [14]; [19]): 53.6 ± 3.3%
- drug sensitivity score (UT-SCC-24A; [15]): 32.5 ± 1.7 DSS
- drug sensitivity score (UT-SCC-24A; [16]): 17 ± 1.9 DSS
- drug sensitivity score (UT-SCC-24A; [17]): 27 ± 0.5 DSS
- drug sensitivity score (UT-SCC-24A; [18]): 9.37 ± 1.8 DSS
- drug sensitivity score (UT-SCC-24A; [19]): 24.6 ± 0.76 DSS
